Assay results from publication PMC9127750, “Structure-based design of CDC42 effector interaction inhibitors for the treatment of cancer” (Cell reports, 2022).

Tested on: WM3248 melanoma cells, 486 antibodies
Assay: Reverse phase protein arrays (RPPA);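 on RPPA ACC1.R.C: ratio of treated to vehicle (0 µM) normalized linear protein signal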;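 on RPPA AMPK.a2 pS345.R.V: ratio of treated to vehicle (0 µM) normalized linear protein signal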;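 on RPPA AMPKa pT172.R.C: ratio of treated to vehicle (0 µM) normalized linear protein signal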;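 on RPPA ASNS.R.V: ratio of treated to vehicle (0 µM) normalized linear protein signal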;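 on RPPA AceCS1.R.V: ratio of treated to vehicle (0 µM) normalized linear protein signal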;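 on RPPA Akt1.R.V: ratio of treated to vehicle (0 µM) normalized linear protein signal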;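 on RPPA Atg5.R.C: ratio of treated to vehicle (0 µM) normalized linear protein signal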;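 on RPPA Bim.R.V: ratio of treated to vehicle (0 µM) normalized linear protein signal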
Type: cell-based, Human
Details: 5 uM
Source text: Pellets were snap frozen in liquid nitrogen and shipped to MD Anderson Cancer Center core RPPA facility for RPPA analysis (Table S5). Three biological replicates for each sample were generated.
Nomenclatures on the RPPA heatmaps: name_of_antibody.species_of_antibody.status_of_antibody. V - antibody validated; C - validation of antibody in progress; Q - antibody nonspecific; E – under evaluation; antibodies raised in M - mouse, G - goat, R - rabbit, or T - rat.

SMILES: CN(C)c1cccc(Nc2cc(-c3ccccc3)nc(C3CCNCC3)n2)c1 [ARN22089, N1,N1-dimethyl-N3-(6-phenyl-2-(piperidin-4-yl)pyrimidin-4-yl)benzene-1,3-diamine]
- RPPA MYH11.R.C Average: 0.914
- RPPA Myosin.IIa.R.C Average: 0.843
- RPPA Myosin.IIa_pS1943.R.V Average: 0.844
- RPPA Myt1.R.C Average: 1.051
- RPPA N.Cadherin.R.V Average: 1.019
- RPPA N.Ras.M.V Average: 1.035
- RPPA NAPSIN.A.R.C Average: 1.080
- RPPA NDRG1_pT346.R.V Average: 0.957
- RPPA NDUFB4.R.V Average: 0.959
- RPPA NRF2.R.C Average: 1.058
- RPPA Notch1.R.V Average: 0.994
- RPPA Notch1.cleaved.R.V Average: 0.989
- RPPA P.Cadherin.R.C Average: 1.050
- RPPA PAI.1.M.V Average: 0.977
- RPPA PAICS.R.C Average: 0.899
- RPPA PAK1.R.V Average: 1.006
- RPPA PAK4.R.V Average: 0.986
- RPPA PAK_pT423_T402.R.C Average: 0.921
- RPPA PAR.R.C Average: 1.327
- RPPA PARG.R.C Average: 1.012
- RPPA PARP.R.V Average: 1.023
- RPPA PAX6.R.V Average: 1.030
- RPPA PAX8.R.C Average: 0.962
- RPPA PCNA.M.C Average: 0.948
- RPPA PD.1.R.V Average: 0.992
- RPPA PD.L1.R.C Average: 1.064
- RPPA PDH.M.V Average: 1.049
- RPPA PDHA1.R.V Average: 1.079
- RPPA PDHK1.R.C Average: 1.057
- RPPA PDK1_pS241.R.V Average: 1.138
- RPPA PEA.15.R.V Average: 0.904
- RPPA PEA.15_pS116.R.V Average: 1.018
- RPPA PERK.R.V Average: 0.925
- RPPA PGM1.R.V Average: 0.979
- RPPA PHGDH.R.C Average: 1.081
- RPPA PHLPP.R.V Average: 0.922
- RPPA PI3K.p85.R.C Average: 0.987
- RPPA PI3K.p110.a.R.C Average: 1.057
- RPPA PI3K.p110.b.M.C Average: 0.980
- RPPA PKA.a.R.V Average: 1.013
- RPPA PKC.a.b.II_pT638_T641.R.V Average: 0.925
- RPPA PKC.b.II_pS660.R.V Average: 1.162
- RPPA PKCa.R.V Average: 1.462
- RPPA PKM2.R.C Average: 0.954
- RPPA PLC.gamma1.R.V Average: 0.970
- RPPA PLC.gamma1_pS1248.R.V Average: 1.060
- RPPA PLC.gamma2_pY759.R.V Average: 0.976
- RPPA PLK1.R.C Average: 0.920
- RPPA PMS2.R.V Average: 0.940
- RPPA PR.R.V Average: 1.032
- RPPA PRAS40.M.C Average: 0.991
- RPPA PRAS40_pT246.R.V Average: 1.028
- RPPA PRC1_pT481.R.C Average: 0.944
- RPPA Paxillin.R.C Average: 0.977
- RPPA Pdcd4.R.C Average: 1.156
- RPPA Porin.M.V Average: 0.936
- RPPA p21.R.C Average: 1.048
- RPPA p27.Kip1.R.C Average: 0.948
- RPPA p27_pT157.R.C Average: 0.943
- RPPA p27_pT198.R.V Average: 1.103
- RPPA p38.MAPK.R.V Average: 1.062
- RPPA p38.MAPK._pT180_Y182.R.V Average: 1.580
- RPPA p38.a.M.V Average: 0.984
- RPPA p44.42.MAPK.R.V Average: 0.980
- RPPA p53.R.C Average: 1.052
- RPPA p70.S6K1.R.V Average: 0.998
- RPPA p70.S6K_pT389.R.V Average: 1.143
- RPPA p90RSK_pT573.R.C Average: 0.930
- RPPA A.Raf.R.V (5W1): 1.057
- RPPA A.Raf_pS299.R.C (5W1): 0.952
- RPPA ACC1.R.C (5W1): 1.201
- RPPA ACC_pS79.R.V (5W1): 1.224
- RPPA ACLY_pS455.R.V (5W1): 1.273
- RPPA ACSL1.R.V (5W1): 0.847
- RPPA ACVRL1.R.C (5W1): 0.930
- RPPA ADAR1.M.V (5W1): 0.910
- RPPA ALKBH5.R.V (5W1): 0.866
- RPPA AMPK.a2_pS345.R.V (5W1): 1.146
- RPPA AMPKa.R.C (5W1): 1.108
- RPPA AMPKa_pT172.R.C (5W1): 2.494
- RPPA AR.R.V (5W1): 1.056
- RPPA ARID1A.R.C (5W1): 0.880
- RPPA ASNS.R.V (5W1): 0.847
- RPPA ATM.R.V (5W1): 1.285
- RPPA ATM_pS1981.R.V (5W1): 0.930
- RPPA ATP5A.M.C (5W1): 0.983
- RPPA ATP5H.R.V (5W1): 0.890
- RPPA ATR.R.V (5W1): 0.910
- RPPA ATRX.R.C (5W1): 1.060
- RPPA ATR_pS428.R.C (5W1): 1.111
- RPPA AceCS1.R.V (5W1): 0.974
- RPPA Akt1.R.V (5W1): 1.150
- RPPA Akt1_pS473.R.V (5W1): 1.251
- RPPA Akt2.R.V (5W1): 1.156
- RPPA Akt2_pS474.R.C (5W1): 1.400
- RPPA Akt.R.V (5W1): 1.121
- RPPA Akt_pS473.R.V (5W1): 1.390
- RPPA Akt_pT308.R.V (5W1): 1.046
- RPPA Ambra1_pS52.R.C (5W1): 0.943
- RPPA Annexin.VII.M.V (5W1): 0.883
- RPPA Atg4B.R.C (5W1): 1.033
- RPPA Atg5.R.C (5W1): 1.001
- RPPA Atg7.R.V (5W1): 0.986
- RPPA Aurora.A.R.C (5W1): 0.575
- RPPA Aurora.ABC_pT288_pT232_pT198.R.C (5W1): 0.881
- RPPA Aurora.B.R.V (5W1): 0.940
- RPPA Axl.R.V (5W1): 1.329
- RPPA B7.H3.R.C (5W1): 0.986
- RPPA B7.H4.R.C (5W1): 1.110
- RPPA B.Raf.R.C (5W1): 1.153
- RPPA BAP1.M.V (5W1): 0.943
- RPPA BCL2A1.R.V (5W1): 1.060
- RPPA BMK1.Erk5_pT218_Y220.R.V (5W1): 0.857
- RPPA BRCA1.M.C (5W1): 0.962
- RPPA BRD4.R.V (5W1): 0.959
- RPPA Bad_pS112.R.V (5W1): 1.171
- RPPA Bak.R.C (5W1): 1.077
- RPPA Bax.R.V (5W1): 0.955
- RPPA Bcl2.R.C (5W1): 0.855
- RPPA Beclin.R.C (5W1): 0.863
- RPPA BiP.GRP78.M.C (5W1): 0.936
- RPPA Bim.R.V (5W1): 1.056
- RPPA X4E.BP1.R.V (5W1): 1.448
- RPPA X4E.BP1_pS65.R.V (5W1): 0.917
- RPPA X14.3.3.zeta.R.V (5W1): 0.934
- RPPA X14.3.3βR.V (5W1): 0.934
- RPPA X53BP1.R.V (5W1): 1.104
- RPPA b.Actin.R.C (5W1): 0.885
- RPPA b.Catenin.R.V (5W1): 0.881
- RPPA b.Catenin_pT41_S45.R.V (5W1): 1.099
- RPPA c.Abl.R.V (5W1): 1.227
- RPPA c.Abl_pY412.R.C (5W1): 1.133
- RPPA c.IAP2.R.C (5W1): 0.965
- RPPA A.Raf.R.V (5W3): 1.155
- RPPA A.Raf_pS299.R.C (5W3): 1.022
- RPPA ACC1.R.C (5W3): 0.834
- RPPA ACC_pS79.R.V (5W3): 0.685
- RPPA ACLY_pS455.R.V (5W3): 0.716
- RPPA ACSL1.R.V (5W3): 0.628
- RPPA ACVRL1.R.C (5W3): 0.953
- RPPA ADAR1.M.V (5W3): 1.141
- RPPA ALKBH5.R.V (5W3): 0.830
- RPPA AMPK.a2_pS345.R.V (5W3): 1.116
- RPPA AMPKa.R.C (5W3): 1.027
- RPPA AMPKa_pT172.R.C (5W3): 0.821
- RPPA AR.R.V (5W3): 1.102
- RPPA ARID1A.R.C (5W3): 1.193
- RPPA ASNS.R.V (5W3): 1.291
- RPPA ATM.R.V (5W3): 1.157
- RPPA ATM_pS1981.R.V (5W3): 0.939
- RPPA ATP5A.M.C (5W3): 0.233
- RPPA ATP5H.R.V (5W3): 0.791
- RPPA ATR.R.V (5W3): 0.960
- RPPA ATRX.R.C (5W3): 1.213
- RPPA ATR_pS428.R.C (5W3): 1.112
- RPPA AceCS1.R.V (5W3): 0.718
- RPPA Akt1.R.V (5W3): 0.726
- RPPA Akt1_pS473.R.V (5W3): 0.998
- RPPA Akt2.R.V (5W3): 0.876
- RPPA Akt2_pS474.R.C (5W3): 1.140
- RPPA Akt.R.V (5W3): 0.848
- RPPA Akt_pS473.R.V (5W3): 1.107
